Entries after “also recorded” stand apart in the source; their conditions may differ. Some results are limits rather than exact numbers.

Data set [1] relates to circulating regulatory T cells (Tregs). The data set can be described thus: Circulating Tregs in rats under continuous oral dosing (flow cytometry). In kind it is in vivo. The note with it: 15 and 30 mg/kg oral, days 0 through 14. The source says:
Animals: Harlan Sprague Dawley rats (Hsd:SD) rats were procured through Envigo (Indianapolis, IN). Rats were individually housed in an Optirat carousel with a filtered air supply (Animal Care Systems, Inc. [Centennial, CO]). Rats were fed Teklad rodent diet (Cat. #2020X) and bedded with Teklad ⅛th inch corncob bedding.
Blood sampling: After a 72-hour acclimation period, Rats were randomized into (3) groups of 5 rats each (Day −1). Blood samples were taken on days: −1, 3, 5, 7, 10, and 14. Blood sampling was conducted by inserting a 22 g PinPort injector (Cat. #PNP3M) on the pinport and drawing 200 μL of catheter Loc solution using a 1 mL syringe. The syringe was discarded and a new 1 mL syringe was used to draw approximately 300 μL of whole blood. Whole blood was expelled into 1.7 mL K2EDTA coated tubes and inverted 3× and put at 4 C until processing for flow cytometry. A syringe with Catheter Loc solution (Heparin/Glycerol Loc solution, Cat. #HGS-5 [Braintree Scientific]) was placed on a new PinPort injector and 200 μL of catheter loc solution was added. […]
Flow cytometry: Following red blood cell lysis (BD Pharm Lyse, Cat. #555899, Lot #9311388), rat blood samples were stained with near-IR fixable viability dye (1:3000 dilution, Invitrogen, Cat. #L34960 H, Lot #2159963) for 30 minutes at room temperature. […] Data was analyzed with FlowJo (BD, v10.6.2).
Background: In flow cytometry, cells or beads pass a laser one at a time.

Data set [2] in a line: Serum IgE and IgG in dogs dosed daily for 28 days. In kind it is in vivo. The following applies: 10-30 mg/kg daily for 28 days. How it is done:
Whole venous blood samples of approximately 1 mL were collected from a peripheral vein of all animals on day 0 and on day 28 of the treatment period for determination of IgG and IgE concentrations. Test samples were diluted and incubated in the microtiter wells for 45 minutes alongside dog IgG or IgE standards. The microtiter wells were subsequently washed and HRP conjugate is added and incubated for 45 minutes. IgG or IgE molecules are thus sandwiched between the immobilization and detection antibodies. The wells were then washed to remove unbound HRP-labeled antibodies and TMB reagent was added and incubated for 20 minutes at room temperature. […] Color development is stopped by the addition of Stop Solution, changing the color to yellow, and optical density is measured spectrophotometrically at 450 nm. The concentration of IgG or IgE is proportional to the optical density of the test sample and is derived from a standard curve.

The test system of data set [3] is patient-derived tumor spheroids. In words: Anti-tumor effect in patient-derived tumor spheroids. In kind it is cell-based.
Data set [4] concerns D4M.3A tumor. In words: Tumor growth in D4M.3A tumor-bearing C57/BL6 mice, oral dosing. In kind it is in vivo. The note with it: 64 mg/kg orally once per day for 20 days. An excerpt:
A high volume of distribution (Vss 22.6 l/kg) was observed. […] MPT-0118 is quickly distributed from the plasma to the tissue compartment, which reduces the risk for depletion of circulating Tregs. The high volume of distribution and accumulation of MPT-0118 in tumor tissue broadens the therapeutic window for cancer therapy.

The nature of data set [5]: Plasma pharmacokinetics in C57/BL6 mice. In kind it is in vivo. How it is done:
(§1) A high volume of distribution (Vss 22.6 l/kg) was observed. […] The tumor concentrations in this experiment were above 3 μM for a 24-hour period, which is a required dose for an anti-tumor effect in patient-derived tumor spheroids as shown in FIG. 9. […] MPT-0118 is quickly distributed from the plasma to the tissue compartment, which reduces the risk for depletion of circulating Tregs. The high volume of distribution and accumulation of MPT-0118 in tumor tissue broadens the therapeutic window for cancer therapy.

The nature of a further data set: pKa. Type of data set: physicochemical.
Data set [6] has as its system D4M.3A tumor. In words: D4M.3A syngeneic tumors in C57BL/6J mice, I.P. monotherapy and combination with anti-PD-1. Type of data set: in vivo. How it is done:
One million cells of D4M.3A tumor were injected subcutaneously into the right hind flank of C57BL/6J mice.
Anti-PD-1 Antibody dosing was 10 μL/g animal weight for 3 doses on first, third and fifth treatment day.
Measurement of tumor volume (L×W2)/2 was done by caliper. Longest tumor diameter becomes length. Width is perpendicular to length. Volume=(width2×length)/2.

A short description of data set [7]: Tumor pharmacokinetics in D4M.3A tumor-bearing C57/BL6 mice. Type of data set: in vivo. The following applies: 64 mg/kg PO once per day, after 20 days of dosing, for a 24-hour period. The method, then:
as §1

The conditions of data set [8]: in vivo; cited from earlier work.

For the compound `CN1CCC[C@H](CN2c3ccccc3Sc3ccccc32)C1` [(S)-mepazine], the “average percent of circulating regulatory T cells (Tregs)” value in [1] was “no effect; also recorded: did not deplete”. Further, in data set [2], the “serum levels of IgE” value is “not negatively impact; also recorded: did not increase; also recorded: did not decrease” and the “serum levels of IgG” value is recorded as “not negatively impact; also recorded: did not increase; also recorded: did not decrease”. In addition, in data set [3], the “required dose for an anti-tumor effect in patient-derived tumor spheroids” value amounted to 3 µM. Further, in the data set with D4M.3A tumor [4], the tumor growth inhibition result is on record as “significant tumor growth inhibition”. Besides, the Vd in data set [5] (C57/BL6, mouse, single dose 16 mg/kg IV, plasma over 8 hours, read-out: volume of distribution (Vss)) was found to be 22.6 L/kg. Besides, the bioavailability (commonly the share of a dose that reaches the circulation, judged against a reference dose that is usually intravenous) in data set [5] (mouse, in vivo, po) fell in the range of 25 to 35%. Also, in the data set “pKa”, the pKa (commonly the negative logarithm of the acid dissociation constant) is 9.2. Also, the tumor volume result in the data set with D4M.3A tumor [6] (combination therapy: 32 mg/kg I.P. once per day with anti-PD-1 antibody) was “significant reduction in tumor volume; also recorded: reduced tumor volume”. The tumor volume result in the data set on D4M.3A tumor [6] (monotherapy, 32 mg/kg I.P. once per day, from day 9) was “reduced tumor volume”. Moreover, the tumor concentrations entry in [7] was “above 3 μM”.

In the data set “pKa”, `CO[C@@H](C)c1c(NC(=O)Nc2cnc(-n3nccn3)c(C(F)(F)F)c2)cnc(N)c1Br` [Compound-139] returned a pKa of 6.5.

In turn, `CO[C@@H](C)c1c(NC(=O)Nc2cnc(-n3nccn3)c(Cl)c2)cnc2cc(Cl)nn12` [Example-10] had a pKa in “pKa” of less than 5.

With `CO[C@@H](C)c1c(NC(=O)Nc2ccnc(C(F)(F)F)c2)cnc2cc(Cl)nn12` [MLT-943], the “serum IgE” value in [8] is “increased”.

These data come from patent US20230414629A1, “MATERIALS AND METHODS OF TREATING CANCER” (MONOPTEROS THERAPEUTICS, INC., priority 2020, published 2023).
